The test system of experiment [1] is PAFR. Particulars: literature (Pietri, 2001; Jaracz, 2002); cited from earlier work.
Experiment [2] concerns the target T1, PAFR (Cavia porcellus, UniProt P21556). Particulars: for Ki: Inhibition of [^3H]-WEB 2086 binding, cloned PAFR, Cheng-Prusoff from IC50; for PAFR binding (in words): at the concentrations tested.
Experiment [3] concerns the target T1, PAFR. Type of experiment: binding, PAFR transgenic mice.
Experiment [4] deals with T1, PAFR. Briefly: biochemical.
Experiment [5] has as its system PAFR. The experiment in a line: PAFR antagonism in previous or preliminary studies (literature, unpublished results). Particulars: preliminary studies (Suehiro, unpublished results).
Experiment [6] relates to PAFR. Particulars: PAF-induced rabbit platelet aggregation (Park, 1996; Hu, 1999; Hu, 2000); cited from earlier work.
Setting [7] is: Ki, Inhibition of [^3H]-WEB 2086 binding, means of two independent experiments performed in triplicate.
[8] abbreviates: Inhibition of [^3H]-WEB 2086 binding, means of two independent experiments performed in triplicate, read-out: Ki.

The source of these data is patent publication US7473788B2, “Analogs of terpene trilactones from Ginkgo biloba and related compounds and uses thereof” (The Trustees of Columbia University in the City of New York, priority 2002, dated 2009).

Read-outs that look alike come from different tables or passages of the source. Bounds are passed on as bounds.

For orientation: Ki means the equilibrium dissociation constant of an inhibitor or competing ligand from its target. Usually IC50 stands for the midpoint of a concentration-inhibition curve.

T1 sequence (P21556 whole entry): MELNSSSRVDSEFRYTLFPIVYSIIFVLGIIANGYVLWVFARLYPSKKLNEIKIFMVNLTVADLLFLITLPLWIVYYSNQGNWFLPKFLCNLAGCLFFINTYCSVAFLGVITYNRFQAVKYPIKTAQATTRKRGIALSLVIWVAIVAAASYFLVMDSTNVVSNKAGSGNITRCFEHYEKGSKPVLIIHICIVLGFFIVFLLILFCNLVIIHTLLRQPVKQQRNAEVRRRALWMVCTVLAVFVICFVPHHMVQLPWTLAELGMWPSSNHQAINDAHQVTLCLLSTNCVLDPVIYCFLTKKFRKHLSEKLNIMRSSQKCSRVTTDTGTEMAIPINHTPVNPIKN

For the molecule 7-O-(4-methylphenyl)-GB, the “PAFR activity (in words)” value in the experiment on PAFR [1] is reported as “devoid of PAFR activity”.

As to “10-O-benzophenone-7-O-dansyl ginkgolide C [Compound 10a]”, at PAFR [2], the Ki turned out to be 3940 nM. On PAFR [2] (ratio of Ki), the “times less active than 9a” value was “ca. 6”. “10-O-benzoylbenzoic ginkgolide C [Compound 11]” returned a Ki at PAFR [2] of 130 nM. Consider `CC1C(=O)OC2C(O)C34C5OC(=O)C3(OC3OC(=O)C(O)C34C(C(C)(C)C)C5O)C12O` (stereo not drawn) [7-epi-GC (18), 7-Epi-ginkgolide C], for which the affinity at PAFR [3] (setting [7]) corresponds to a Ki of 4260 nM. As to `CC1C(=O)OC2C(O)C34C5OC(=O)C3(OC3OC(=O)C(O)C34C(C(C)(C)C)C5Cl)C12O` (stereo not drawn) [7α-Cl-GB (22), 7α-Chloro Ginkgolide B], at PAFR [3] (ratio of Ki), the “fold more potent than GC (2)” value was found to be 115 and the “times more potent than GB (1)” value was found to be 8. With `CC1C(=O)O[C@H]2C(O)C34C5OC(=O)[C@@]3(OC3OC(=O)[C@H](O)C34C(C(C)(C)C)[C@@H]5N=[N+]=[N-])[C@@]12O` (stereo partly drawn) [7α-N3-GB (20), 7α-Azido Ginkgolide B], at PAFR [3] (setting [8]), the inhibitory constant (Ki) came out at 550 nM. `CCNC1C(C(C)(C)C)C23C(OC(=O)C2O)OC24C(=O)OC1C32C(O)C1OC(=O)C(C)C14O` (stereo not drawn) [7α-NHEt-GB (26), 7α-N-Ethylamino Ginkgolide B]: the Ki is 1620 nM on PAFR [3] (setting [8]) and 550 to 1620 nM on PAFR [3] (setting [7]). The like results for `CNC1C(C(C)(C)C)C23C(OC(=O)C2O)OC24C(=O)OC1C32C(O)C1OC(=O)C(C)C14O` (stereo not drawn) [7α-NHMe-GB (25), 7α-N-Methylamino Ginkgolide B] were, in that order, 610 nM and 550 to 1620 nM. Regarding `CC(=O)OC1C(C(C)(C)C)C23C(OC(=O)C2O)OC24C(=O)OC1C32C(O)C1OC(=O)C(C)C14O` (stereo not drawn) [7α-OAc-GB (17), 7α-O-Acetate Ginkgolide B], on PAFR [3] (setting [8]), the Ki was 7840 nM. `CC1C(=O)OC2C(O)C34C5OC(=O)C3(OC3OC(=O)C(O)C34C(C(C)(C)C)C5OC(=O)Cc3ccccc3)C12O` (stereo not drawn) [7α-OCOCH2Ph-GB (19), 7α-O-Phenylacetate Ginkgolide B] returned a Ki on PAFR [3] (setting [7]) of 2400 nM. In the case of `CC1C(=O)OC2C(O)C34C5OC(=O)C3(OC3OC(=O)C(OCc6ccccc6)C34C(C(C)(C)C)C5F)C12O` (stereo not drawn) [10-OBn-7α-F-GB (30), 10-O-Benzyl-7α-fluoro Ginkgolide B], the Ki at PAFR [3] (setting [7]) is 100 nM. Moreover, the “fold improved affinity compared to non-benzylated derivative” value on PAFR [3] (ratio of Ki) is 10.

For the molecule `CC1C(=O)OC2C(O)C34C5CC(C(C)(C)C)C36C(OC(=O)C6OCc3ccccc3)OC4(C(=O)O5)C12O` (stereo not shown) [10-OBn-GB (28), 10-O-Benzyl Ginkgolide B], the Ki at PAFR [3] (setting [8]) amounted to 120 nM. The same measure, in the same setting: under `CC1C(=O)OC2C(O)C34C5OC(=O)C3(OC3OC(=O)C(OCc6ccccc6)C34C(C(C)(C)C)C5O)C12O` (stereo not shown) [10-OBn-GC (29), 10-O-Benzyl Ginkgolide C] stands 1670 nM. For the molecule `CC1C(=O)OC2C(O)C34C5OC(=O)C3(OC3OC(=O)C(OCc6ccccc6)C34C(C(C)(C)C)C5O)C12O` (stereo not drawn) [10-OBn-epi-GC (31), 10-O-Benzyl-7-epi-ginkgolide C], the Ki at PAFR [3] (setting [8]) was found to be 600 nM. The “fold improved affinity compared to non-benzylated derivative” value on PAFR [3] (ratio of Ki) is recorded as 7. `CC(C)(C)[C@]1(O)CC2OC(=O)CC23C(=O)OC2OC(=O)[C@H](O)C231` (stereo partly shown) [BB (6), bilobalide]: at PAFR [2], the Ki was > 50000 nM and the “PAFR binding (in words)” value is on record as “not active in concentrations up to 100 μM”. On to `CC1C(=O)OC2C(O)C34C5CC(C(C)(C)C)C36C(OC(=O)C6OCc3ccc(C6(C(F)(F)F)N=N6)cc3)OC4(C(=O)O5)C12O` (stereo not shown) [Compound 8b, 10-O-(trifluoromethyl-3H-diazirine)benzyl ginkgolide B], for which the inhibition constant Ki on PAFR [4] came to 150 nM. Same read-out and setting: under `CC1C(=O)OC2C(O)C34C5CC(C(C)(C)C)C36C(OC(=O)C6OCc3c(F)c(F)c(N=[N+]=[N-])c(F)c3F)OC4(C(=O)O5)C12O` (stereo not shown) [Compound 8c, 10-O-tetrafluorobenzylazide ginkgolide B] stands 90 nM; under `CC1C(=O)OC2C(O)C34C5OC(=O)C3(OC3OC(=O)C(OCc6c(F)c(F)c(N=[N+]=[N-])c(F)c6F)C34C(C(C)(C)C)C5O)C12O` (stereo not shown) [Compound 9c, 10-O-tetrafluorobenzylazide ginkgolide C], 790 nM. Consider `CC1C(=O)OC2C(OS(=O)(=O)c3cccc4c(N(C)C)cccc34)C34C5OC(=O)C3(OC3OC(=O)C(OCc6ccc(C(=O)c7ccccc7)cc6)C34C(C(C)(C)C)C5O)C12O` (stereo not shown) [Compound 10b, 10-O-benzophenone-1-O-dansyl ginkgolide C], for which the Ki at PAFR [4] is 960 nM. Besides, at PAFR [2], the “times more potent than 10a” value is given as “ca. four”. On to `CC1C(=O)OC2C(O)C34C5OC(=O)C3(OC3OC(=O)C(O)C34C(C(C)(C)C)C5F)C12O` (stereo not shown) [Compound 13, 7-Fluoro ginkgolide B], for which, in the experiment with PAFR [5], the “fold more potent as a PAFR antagonist compared to GC (2)” value is given as 15. Further, at PAFR [2], the “fold more potent / improved affinity to PAFR relative to GC (3)” value was “ca. 10”. In the case of `COC1C(=O)OC2OC34C(=O)OC5CC(C(C)(C)C)C21C53C(O)C1OC(=O)C(C)C14O` (stereo not shown) [Compound 14, 10-O-Methyl ginkgolide B], the Ki at PAFR [4] came to 3160 nM. Consider `C[C@@H]1C(=O)O[C@H]2C[C@@]34[C@H]5C[C@@H](C(C)(C)C)[C@]36[C@@H](OC(=O)[C@@H]6O)O[C@@]4(C(=O)O5)[C@]21O` [GA (1), ginkgolide A], for which the inhibition constant (Ki) on PAFR [2] stood at 1460 nM. As for `CC1C(=O)OC2C(O)C34C5CC(C(C)(C)C)C36C(OC(=O)C6O)OC4(C(=O)O5)C12O` (stereo not shown) [GB (2), ginkgolide B, reference compound], the figures for the Ki on PAFR [4] and on PAFR [3] (read-out: Ki) were 560 nM and 880 nM, respectively. Further, the “fold more potent than GC (2)” value at PAFR [3] (ratio of Ki) was “ca. 25”. Also, the IC50 in the experiment with PAFR [6] was ~200 nM.

In the case of `CC1C(=O)OC2C(O)C34C5OC(=O)C3(OC3OC(=O)C(O)C34C(C(C)(C)C)C5O)C12O` (stereo not shown) [GC (3), ginkgolide C, reference compound], the Ki at PAFR [4] was determined as 12600 nM.

As to `C[C@@H]1C(=O)O[C@@H]2[C@H]1[C@@]13OC4OC(=O)[C@H](O)C45[C@H](C(C)(C)C)[C@@H](O)C(OC1=O)[C@]53[C@H]2O` (stereo partly shown) [GM (5), ginkgolide M], at PAFR [2], the Ki is > 50000 nM and the “PAFR binding (in words)” value is recorded as “devoid of PAFR binding”.

In the case of Neoginkgolide C [Compound 23], the Ki on PAFR [3] (setting [8]) was > 40000 nM.

As to ginkgolide J [GJ (4)], on PAFR [2], the Ki was 9900 nM.
